Source: publication PMC7705649 (Scientific Reports, 2020)
Several values for one entry are separate records, joined by “and”; a condition that tells them apart may be missing. Equal entries are not always repeated. Where two headings read alike, the source gives them in different places. Each block holds one compound with its values, some of them ahead of it.

What was measured:
human serum albumin [1] = molecular target: T1, human serum albumin (Homo sapiens, UniProt P02768); conditions: binding percentage to human serum albumin, biomimetic column, ± RSD (%)
[2] = Affinity for immobilized phospholipids (IAM chromatography); assay type: physicochemical; conditions: IAM.PC.DD2 column, phosphate-buffered saline/methanol, y-intercept of log k vs methanol fraction; ± 95% confidence interval
Source text: The same HPLC conditions, mobile phases and calculation approaches were used for evaluation of IAM affinity, as in determining hydrophobicity with the RP-HPLC column.

[3] = RP-HPLC hydrophobicity determination (C18 column); assay type: physicochemical; conditions: Symmetry C18, phosphate-buffered saline/methanol, y-intercept of log k vs methanol fraction, 25 °C; ± 95% confidence interval
Method: All HPLC measurements were carried out on an Agilent 1100 series HPLC system (Agilent Technologies, Waldbronn, Germany) coupled with a diode array detector (DAD). System control, data collection and data processing were accomplished using ChemStation for LC 3D software by Agilent Technologies. RP-HPLC hydrophobicity determination was carried on Symmetry C18 reversed-phase column (150 × 4.6 mm, 3.5 µm particle size) obtained by Waters (Milford, MA, USA), with phosphate-buffered saline and methanol as mobile phase. The flow rate was set at 1.0 mL/min with the injection volume of 10.0 µL whilst the column temperature was maintained at 25.0 ± 0.1 °C. To obtain hydrophobicity, the log k values were calculated using retention times of investigated compounds (tR) and retention time of sodium nitrate as unretained compound (t0). […] At least five different concentrations of methanol in the mobile phase were applied for each standard substance and all measurements at each methanol fraction were performed in triplicates. […] Column equilibration time of 20 min was necessary after every change of mobile phase. Finally, log kw C18 value, describing hydrophobicity, was obtained by calculating the y-intercept of the regression line in a plot of log k vs. methanol fraction in the mobile phase.

α1-acid-glycoprotein = assay: Plasma protein binding on biomimetic AGP column; assay type: in vitro ADME; conditions: for PPBAGP (%): binding percentage to α1-acid-glycoprotein, biomimetic column, ± RSD (%)
human serum albumin [4] = molecular target: T1, human serum albumin; assay: Frontal analysis of FA on HSA column (HPAC); assay type: binding
Method: Frontal and zonal elution studies were carried out on HSA (Chiralpak-HSA, 50 × 4.6 mm, 5 μm particle size) biomimetic column obtained by ChromTech (Cedex, France). […] Injection volume was set at 10.0 µL and the measurements were carried out at 25.0 ± 0.1 °C.

T1 sequence (P02768 25-609): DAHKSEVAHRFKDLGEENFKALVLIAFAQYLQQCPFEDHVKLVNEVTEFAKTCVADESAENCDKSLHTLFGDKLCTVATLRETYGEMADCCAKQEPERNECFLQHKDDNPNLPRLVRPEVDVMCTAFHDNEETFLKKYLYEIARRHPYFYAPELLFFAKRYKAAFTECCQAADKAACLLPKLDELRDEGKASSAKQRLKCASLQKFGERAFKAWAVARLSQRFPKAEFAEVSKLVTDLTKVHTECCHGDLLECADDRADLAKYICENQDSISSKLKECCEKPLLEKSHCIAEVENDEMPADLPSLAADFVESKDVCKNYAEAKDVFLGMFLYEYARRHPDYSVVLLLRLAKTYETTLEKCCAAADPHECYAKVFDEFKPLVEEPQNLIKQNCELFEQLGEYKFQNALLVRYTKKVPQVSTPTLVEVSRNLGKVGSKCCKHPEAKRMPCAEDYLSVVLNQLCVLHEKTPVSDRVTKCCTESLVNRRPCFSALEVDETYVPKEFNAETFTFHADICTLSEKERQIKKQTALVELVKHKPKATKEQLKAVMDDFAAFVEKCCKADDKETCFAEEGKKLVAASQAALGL

SMILES: O=C(O)c1cc(/N=N/c2ccc(S(=O)(=O)Nc3ccccn3)cc2)ccc1O [SASP, sulfasalazine]
log kw IAM [2]: 2.77 ± 0.23 | log kw C18 [3]: 3.71 ± 0.24

SMILES: Nc1nc2ncc(CNc3ccc(C(=O)N[C@@H](CCC(=O)O)C(=O)O)cc3)nc2c(=O)[nH]1 [FA, folic acid]
PPBHSA (%) (human serum albumin [1]): 69.40 ± 0.53% | PPBHSA (%) (human serum albumin [1]; listed as folic acid): 69.40% | PPBAGP (%) (α1-acid-glycoprotein): 3.45% | moles of binding sites (mL) (human serum albumin [4]; frontal analysis, HSA column, brackets = 95% confidence interval): 2.34 (± 1.16) × 10^–7 mol | type of binding site on HSA (human serum albumin [4]; linear double-reciprocal plot, 1-20 µM FA): single type of binding site | log kw C18 [3]: 0.99 and 0.99 ± 0.31

SMILES: Nc1ccc(O)c(C(=O)O)c1 [MSZ, mesalazine]
PPBHSA (%) (human serum albumin [1]): 61.44 ± 0.51% | log kw IAM [2]: 0.17 and 0.17 ± 0.02 | log kw C18 [3]: 0.37 and 0.37 ± 0.19

More lines, now with the values ahead:

PPBHSA (%) (human serum albumin [1]): 96.00 ± 0.03% | log kw IAM [2]: 1.69 ± 0.17 | log kw C18 [3]: 3.25 ± 0.09
SMILES: O=C(O)c1cc(/N=N/c2ccc(O)c(C(=O)O)c2)ccc1O [OSZ, olsalazine]

PPBHSA (%) (human serum albumin [1]): 91.64 ± 0.04% | log kw IAM [2]: 1.20 ± 0.11 | PPBAGP (%) (α1-acid-glycoprotein): 77.60 ± 0.58% | affinity for AGP lower than for HSA (α1-acid-glycoprotein; difference PPBHSA minus PPBAGP): 14% | log kw C18 [3]: 3.01 ± 0.09
SMILES: O=C(O)CCNC(=O)c1ccc(/N=N/c2ccc(O)c(C(=O)O)c2)cc1 [BSZ, balsalazide]
